Experimental data from US10143199B2, “Method of killing bedbug eggs” (Ecolab USA Inc., priority 2012, dated 2018).

Key:
Assay type in all cases: in vivo
Bedbug eggs [1] = test: Treating bedbug eggs on a substrate with test composition at pH 9 to 10 (Example 1); details: 1% solution, pH of 9 to 10, 100° F., 5 minutes exposure
Procedure: Bedbug eggs on a substrate were exposed to a 100° F. test composition for 5 minutes and then examined. […] Water by itself killed about 20% of the bedbug eggs. And, complete kill was accomplished by a commercial bedbug killer sold under the tradename Transport.

Bedbug eggs [2] = test: Treating bedbug eggs with anionic compounds near neutral pH (Example 2), kill of eggs; details: pH 7-8, 100° F., 5 min
Procedure: (§1) Aqueous test compositions of each of several anionic compounds prepared and adjusted to near neutral pH of about 7-8. Bedbug eggs were then contacted with a 100° F. test composition for 5 min.

Bedbug Eggs and Nymphs = test: Treating bedbug eggs with anionic compounds near neutral pH (Example 2), kill of eggs and nymphs; details: pH 7-8, 100° F., 5 min
Procedure: as §1

Compound	kill of bedbug eggs (Bedbug eggs [1])	% Kill of Bedbug Eggs (Bedbug eggs [2]; 0.1% aqueous test composition) [%]	% Kill of Bedbug Eggs (Bedbug eggs [2]; 1% aqueous test composition) [%]	% Kill of Bedbug Eggs and Nymphs (Bedbug Eggs and Nymphs; 0.1% aqueous test composition) [%]	% Kill of Bedbug Eggs and Nymphs (Bedbug Eggs and Nymphs; 1% aqueous test composition) [%]
CCCCCCCCCCCCOS(=O)(=O)[O-].[Na+] [sodium lauryl sulfate]	did not kill	70	75	95	100
CCCCCCCCS(=O)(=O)[O-].[Na+] [sodium octyl sulfonate]	–	–	90	–	95
sodium dodecylbenzene sulfonate	–	–	30	–	30
sodium lauryl ether sulfate	–	–	35	–	35
